Patent US8962608B2, “Cycloalkylnitrile pyrazole carboxamides as janus kinase inhibitors” (Merck Sharp & Dohme Corp., priority 2011, dated 2015)

Key:
[1] = molecular target: JAK2 (recombinant purified GST-tagged catalytic domain) (Homo sapiens (Human), UniProt O60674); assay: biochemical;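 also: biochemical JAK kinase assay with HTRF detection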
[2] = molecular target: JAK1 (recombinant purified GST-tagged catalytic domain) (Homo sapiens (Human), UniProt P23458); assay: biochemical;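 also: biochemical assay with HTRF read-out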
Sequence of JAK1 (recombinant purified GST-tagged catalytic domain) (P23458 875-1153): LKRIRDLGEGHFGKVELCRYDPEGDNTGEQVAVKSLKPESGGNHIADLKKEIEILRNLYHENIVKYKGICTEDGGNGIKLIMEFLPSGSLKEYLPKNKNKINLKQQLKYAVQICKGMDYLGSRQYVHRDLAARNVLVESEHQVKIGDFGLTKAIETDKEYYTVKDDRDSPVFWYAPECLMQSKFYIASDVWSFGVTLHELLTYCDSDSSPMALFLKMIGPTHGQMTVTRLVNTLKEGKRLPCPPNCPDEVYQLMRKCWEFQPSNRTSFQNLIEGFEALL

Sequence of JAK2 (recombinant purified GST-tagged catalytic domain) (O60674 849-1124): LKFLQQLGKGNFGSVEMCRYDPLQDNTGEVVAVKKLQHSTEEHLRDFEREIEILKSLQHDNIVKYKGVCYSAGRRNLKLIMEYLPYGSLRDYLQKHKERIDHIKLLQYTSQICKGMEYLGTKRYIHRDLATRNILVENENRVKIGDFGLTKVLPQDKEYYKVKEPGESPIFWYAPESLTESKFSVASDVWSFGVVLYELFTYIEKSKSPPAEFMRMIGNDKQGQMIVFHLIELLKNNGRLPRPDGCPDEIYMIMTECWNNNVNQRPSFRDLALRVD

Row | Structure (SMILES) | IC50 [1] [nM] | IC50 [2] [nM]
1 | Cc1noc(-c2ccc(Nc3nn([C@H]4CCCC[C@@H]4C#N)cc3C(N)=O)cc2)n1 (racemic) [Example 17-6, 1-[(1S,2S and 1R,2S)-2-cyanocyclohexyl]-3-{[4-(3-methyl-1,2,4-oxadiazol-5-yl)phenyl]amino}-1H-pyrazole-4-carboxamide] | 25 | 4
2 | N#C[C@H]1C[C@H](OCC2CC2)CC[C@H]1n1cc(C(N)=O)c(Nc2ccnc(F)c2)n1 (single isomer, unassigned) [Example 26-3, 1-[(1R,2S,4R or 1S,2R,4S)-2-cyano-4-(cyclopropylmethoxy)cyclohexyl]-3-[(2-fluoropyridin-4-yl)amino]-1H-pyrazole-4-carboxamide] | 150 | 69
3 | N#C[C@H]1CCCC[C@@H]1n1cc(C(N)=O)c(Nc2ccc(S(=O)(=O)NCc3ccccn3)cc2)n1 (single isomer, unassigned) [Example 17-85, 1-[(1R,2R or 1S,2S)-2-cyanocyclohexyl]-3-({4-[(pyridin-2-ylmethyl)sulfamoyl]phenyl}amino)-1H-pyrazole-4-carboxamide] | 4 | 0.9
4 | N#C[C@H]1CCCC[C@@H]1n1cc(C(N)=O)c(Nc2ccc(S(=O)(=O)Nc3ccc(C(F)(F)F)cc3)cc2)n1 (single isomer, unassigned) [Example 17-95, 1-[(1R,2R or 1S,2S)-2-cyanocyclohexyl]-3-[(4-{[4-(trifluoromethyl)phenyl]sulfamoyl}phenyl)amino]-1H-pyrazole-4-carboxamide] | 31 | 6
5 | N#C[C@H]1C[C@H](O)CC[C@@H]1n1cc(C(N)=O)c(Nc2ccc(C(F)(F)F)cc2)n1 (single isomer, unassigned) [Example 25-5, 1-[(1S,2S,4R or 1R,2R,4S)-2-cyano-4-hydroxycyclohexyl]-3-{[4-(trifluoromethyl)phenyl]amino}-1H-pyrazole-4-carboxamide] | 10 | 1
6 | N#C[C@@H]1CC(CN)CCC1n1cc(C(N)=O)c(Nc2ccc(F)cc2)n1 (mixture of isomers) [Example 9, 1-((1R,2R and 1S,2S)-4-(Aminomethyl)-2-cyanocyclohexyl)-3-((4-fluorophenyl)amino)-1H-pyrazole-4-carboxamide] | 247 | 12
7 | CS(=O)(=O)c1ccc(Nc2nn([C@H]3CC[C@@H](O)C[C@@H]3C#N)cc2C(N)=O)cc1 (single isomer, unassigned) [Example 25-28, 1-[(1S,2S,4R or 1R,2R,4S)-2-cyano-4-hydroxycyclohexyl]-3-{[4-(methylsulfonyl)phenyl]amino}-1H-pyrazole-4-carboxamide] | 3 | 0.1
8 | N#C[C@H]1CCCC[C@@H]1n1cc(C(N)=O)c(Nc2ccc(S(=O)(=O)NC3CCCCC3)cc2)n1 (single isomer, unassigned) [Example 17-82, 1-[(1R,2R or 1S,2S)-2-cyanocyclohexyl]-3-{[4-(cyclohexylsulfamoyl)phenyl]amino}-1H-pyrazole-4-carboxamide] | 1 | 0.5
9 | N#C[C@H]1C[C@@H](N2CCC2)CC[C@@H]1n1cc(C(N)=O)c(Nc2ccc(C(F)(F)F)cc2)n1 (single isomer, unassigned) [Example 28-1, 1-((1S,2S,4S or 1R,2R,4R)-4-(azetidin-1-yl)-2-cyanocyclohexyl)-3-((4-(trifluoromethyl)phenyl)amino)-1H-pyrazole-4-carboxamide] | 23 | 0.4
10 | CO/N=C(\C)c1ccc(Nc2nn([C@H]3CCCC[C@@H]3C#N)cc2C(N)=O)cc1 (single isomer, unassigned) [Example 40, 1-[(1S,2S or 1R,2R)-2-Cyanocyclohexyl]-3-{[4-(N-methoxyethanimidoyl)phenyl]amino}-1H-pyrazole-4-carboxamide] | 2 | 0.35
11 | N#C[C@H]1CCCC[C@@H]1n1cc(C(N)=O)c(Nc2ccc(S(=O)(=O)NCc3ccncc3)cc2)n1 (single isomer, unassigned) [Example 17-86, 1-[(1R,2R or 1S,2S)-2-cyanocyclohexyl]-3-({4-[(pyridin-4-ylmethyl)sulfamoyl]phenyl}amino)-1H-pyrazole-4-carboxamide] | 0.95 | 0.25

Other lines, results leading:

Row | IC50 [1] [nM] | IC50 [2] [nM] | Structure (SMILES)
12 | 65 | 1 | C[C@H](N[C@H]1CC[C@H](n2cc(C(N)=O)c(Nc3ccc(OC(F)(F)F)cc3)n2)[C@@H](C#N)C1)C1CC1 (single isomer, unassigned) [Example 28-91, 1-[(1S,2S,4S or 1R,2R,4R)-2-cyano-4-{[(1S)-1-cyclopropylethyl]amino}cyclo-hexyl]-3-{[4-(trifluoromethoxy)phenyl]amino}-1H-pyrazole-4-carboxamide]
13 | 4 | 0.65 | CC(C)(O)[C@H]1CC[C@H](n2cc(C(N)=O)c(Nc3ccc(Cl)cc3)n2)[C@@H](C#N)C1 (single isomer, unassigned) [Example 36-1, 3-(4-chlorophenylamino)-1-((1S,2S,4S or 1R,2R,4R)-2-cyano-4-(2-hydroxypropan-2-yl)cyclohexyl)-1H-pyrazole-4-carboxamide]
14 | 1050 | 51 | N#C[C@H]1C[C@H](NC2CCC2)CC[C@@H]1n1cc(C(N)=O)c(Nc2ccc(C(F)(F)F)cc2)n1 (single isomer, unassigned) [Example 30-14, 1-[(1S,2S,4R or 1R,2R,4S)-2-cyano-4-(cyclobutylamino)cyclohexyl]-3-{[4-(trifluoro-methyl)phenyl]amino}-1H-pyrazole-4-carboxamide]
15 | 27 | 2 | COCC(C)N(C)[C@H]1CCC(n2cc(C(N)=O)c(Nc3ccc(Cl)cc3)n2)[C@@H](C#N)C1 (single isomer, unassigned) [Example 28-240, 3-[(4-chlorophenyl)amino]-1-[(1S,2S,4S or 1R,2R,4R)-2-cyano-4-{[(1S or 1R)-2-methoxy-1-methylethyl](methyl)ami-no}cyclohexyl]-1H-pyrazole-4-carboxamide]
16 | 38 | 5 | N#C[C@@H]1C[C@H](C(=O)NC2COC2)CC[C@H]1n1cc(C(N)=O)c(Nc2ccc(Cl)cc2)n1 (single isomer, unassigned) [Example 35-13, 3-[(4-chlorophenyl)amino]-1-[(1R,2R,4R or 1S,2S,4S)-2-cyano-4-(oxetan-3-ylcarbamoyl)cyclohexyl]-1H-pyrazole-4-carboxamide]
17 | 51 | 3 | CNC(=O)O[C@H]1CCC(n2cc(C(N)=O)c(Nc3ccc(F)cc3)n2)[C@@H](C#N)C1 (mixture of isomers) [Example 34-9, (1S,3S,4S and 1R,3R,4R)-4-{4-carbamoyl-3-[(4-fluorophenyl)aminol-1H-pyrazol-1-yl}-3-cyanocyclohexyl methylcarbamate]
18 | 7 | 0.4 | N#C[C@H]1CC(NC2CCS(=O)(=O)C2)CC[C@@H]1n1cc(C(N)=O)c(Nc2ccc(S(=O)(=O)C(F)(F)F)cc2)n1 (single isomer, unassigned) [Example 28-153, 1-{(1S,2S or 1R,2R)-2-cyano-4-[(1,1-dioxidotetrahydrothiophen-3-yl)amino]cyclohexyl}-3-({4-[(trifluoromethyl)sulfonyl]phen-yl}amino)-1H-pyrazole-4-carboxamide]
19 | 49 | 2 | CS(=O)(=O)C1CN(C(=O)[C@H]2CC[C@H](n3cc(C(N)=O)c(Nc4ccc(Cl)cc4)n3)[C@@H](C#N)C2)C1 (single isomer, unassigned) [Example 35-26, 3-[(4-chlorophenyl)amino]-1-[(1S,2S,4S or 1R,2R,4R)-2-cyano-4-{[3-(methylsulfonyl)azetidin-1-yl]carbonyl}cyclohexyl]-1H-pyrazole-4-carboxamide]
20 | 24 | 2 | CC1(N[C@H]2CCC(n3cc(C(N)=O)c(Nc4ccccc4)n3)[C@@H](C#N)C2)CC1 (single isomer, unassigned) [Example 28-216, 1-{(1S,2S,4S or 1R,2R,4R)-2-cyano-4-[(1-methylcyclopropyl)amino]cyclo-hexyl}-3-(phenylamino)-1H-pyrazole-4-carboxamide]
21 | 16 | 0.7 | CN[C@H]1CC[C@H](n2cc(C(N)=O)c(Nc3ccc(Cl)cc3)n2)[C@@H](C#N)C1 (single isomer, unassigned) [Example 28-40, 3-[(4-chlorophenyl)amino]-1-[(1S,2S,4S or 1R,2R,4R)-2-cyano-4-(methylamino)cyclohexyl]-1H-pyrazole-4-carboxamide]
22 | 5 | 0.5 | N#C[C@H]1C[C@@H](O)CC[C@@H]1n1cc(C(N)=O)c(Nc2ccc(OC(F)(F)F)cc2)n1 (single isomer, unassigned) [Example 33-1, 1-((1S,2S,4S or 1R,2R,4R)-2-Cyano-4-hydroxycyclohexyl)-3-((4-(trifluoromethoxy)phenyl)amino)-1H-pyrazole-4-carboxamide]
23 | 2 | 0.5 | CC(C)(c1ccc(Nc2nn([C@H]3CC[C@H](O)C[C@@H]3C#N)cc2C(N)=O)cc1)C(O)C(F)(F)F (single isomer, unassigned) [Example 33-15, 1-[(1S,2S,4S or 1R,2R,4R)-2-cyano-4-hydroxycyclohexyl]-3-{[4-(3,3,3-trifluoro-(2R or 2S)-hydroxy-1,1-dimethylpropyl)phenyl]amino}-1H-pyrazole-4-carboxamide]
24 | 215 | 8 | C[C@H](N[C@@H]1CC[C@H](n2cc(C(N)=O)c(Nc3ccc(Cl)c(F)c3)n2)[C@@H](C#N)C1)C1CC1 (single isomer, unassigned) [Example 28-48, 3-[(4-chloro-3-fluorophenyl)amino]-1-[(1S,2S,4R or 1R,2R,4S)-2-cyano-4-{[(1S or 1R)-1-cyclopropylethyl]amino}cyclo-hexyl]-1H-pyrazole-4-carboxamide]
25 | 254 | 12 | CN(C)[C@@H]1CC[C@H](n2cc(C(N)=O)c(Nc3ccnc(F)c3)n2)[C@@H](C#N)C1 (single isomer, unassigned) [Example 28-127, 1-[(1S,2S,4R or 1R,2R,4S)-2-cyano-4-(dimethylamino)cyclohexyl]-3-[(2-fluoropyridin-4-yl)amino]-1H-pyrazole-4-carboxamide]
